This passage reports IC50 and EC50 results from ChEMBL document CHEMBL1130819, “Synthesis and biological evaluation of 1,2-disubstituted carbonucleosides of 2-amino-6-substituted purine and 8-azapurine” (Bioorg Med Chem Lett, 1998).

The subject of one test is CCRF-CEM. Put plainly: Antitumor activity was evaluated against CEM cell line. It is filed as functional, cell-based. The following applies: Homo sapiens.
The subject of the next test is L1210. Put plainly: Antitumor activity was evaluated against L1210 cell line. The following applies: Mus musculus. It is filed as functional, cell-based.
The subject of another test is MOLT-4. Put plainly: Antitumor activity was evaluated against Molt4/C8 cell line. It is filed as functional, cell-based. The settings on record: Homo sapiens.
Test [1] concerns Human alphaherpesvirus 3. The test can be described thus: Antiviral activity against Varicella-Zoster virus(YS/R strain). It is filed as functional, organism-based.
In test [2] the test system is Human alphaherpesvirus 3. Put plainly: Antiviral activity against Varicella-Zoster virus (07/1strain). It is filed as functional, organism-based.
The subject of test [3] is Human alphaherpesvirus 3. The test can be described thus: Antiviral activity against Varicella-Zoster virus(OKA strain). It is filed as functional, organism-based.

Values after ≈ are worked out from the molar mass of the structure shown.

On to `Nc1nc(Cl)c2ncn([C@H]3CCC[C@H]3CO)c2n1`, for which the figures for the IC50 in the test on CCRF-CEM, in the test on L1210 and in the test with MOLT-4 were 83 µM, 71.4 µM and 49.1 µM, respectively.
`Nc1nc(N)c2ncn([C@H]3CCC[C@H]3CO)c2n1`: the IC50 in the test with CCRF-CEM stood at 90 µM; in the test with L1210, 113 µM; with MOLT-4, 147 µM. For the same molecule, the response in the test with Human alphaherpesvirus 3 [1] was half-maximal at 37 µg/mL (≈ 149 µM) (EC50).
`Nc1nc(O)c2nnn([C@H]3CCC[C@H]3CO)c2n1`: the IC50 amounted to 86.7 µM in the test on CCRF-CEM, 80 µM in the test on L1210 and 86 µM in the test with MOLT-4.
`Nc1nc(N)c2nnn([C@H]3CCC[C@H]3CO)c2n1`: the half-inhibitory concentration (IC50) was determined as 90.5 µM in the test on CCRF-CEM, 77.2 µM with L1210 and 120 µM with MOLT-4. Further, the EC50 with Human alphaherpesvirus 3 [2] is 45 µg/mL (≈ 181 µM); in the test with Human alphaherpesvirus 3 [3], 32 µg/mL (≈ 128 µM); in the test with Human alphaherpesvirus 3 [1], 50 µg/mL (≈ 201 µM).
As to `Nc1nc(Cl)c2nnn([C@H]3CCC[C@H]3CO)c2n1`, the IC50 with CCRF-CEM stood at 53 µM; with L1210, 71 µM; in the test with MOLT-4, 75.3 µM.
As for `Nc1nc(O)c2ncn([C@H]3CCC[C@H]3CO)c2n1`, the half-inhibitory concentration (IC50) in the test on CCRF-CEM, in the test with L1210 and with MOLT-4 was over 200 µM each time.
